Publication PMC5698418 (Nature Communications, 2017)
Starred links: 1 amine or outer side, 2 acyl side, 3 side chain; linkers in the order of their positions; H or OH if unused. Positions of bridges follow the written chain, without caps; N, C: chain ends. Non-standard residues stand in square brackets, D forms with d. Residues, ends and D or L forms follow the SMILES beside them. Chains are numbered I, II in the order given. Actinocin(9to1) = Cc1c2oc3c(C)ccc(C(=O)[*:1])c3nc-2c(C(=O)[*:2])c(N)c1=O; NMeV = CN[C@H](C(=O)O)C(C)C; Sar = CNCC(=O)O

Key:
primary cortical neurons = details: screen at 16.7 µM, excluded from data analysis
Method: All 319 compounds were initially tested at a final concentration of 16.7 µM with three biological replicates.
(§1) Screening of compounds in the chemogenomic library was carried out using DIV13 primary forebrain cortical neurons cultured on poly-L-lysine/laminin-coated 96-well plates (Ibidi USA, Madison, WI). Cells were seeded at a density of 30,000 cells per well and treated with the compound library and BDNF according to the experimental design presented in Fig. 3a. After experimental treatment, cells were processed for Arc and acetyl-H3K9 immunocytochemistry according to the protocol described above. Both antigens (Arc and acetyl-H3K9) were imaged using an IN Cell Analyzer 6000 imaging system and a ×40 objective. […] High-throughput quantification of nuclear Arc immunofluorescence signal was performed in a similar fashion than the low-throughput procedure described above but with the exception that acetyl-H3K9 was used as a nuclear mask to guide the automated quantification of nuclear Arc immunofluorescence signal.

[1] = system: nuclear Arc in primary cortical neurons; assay: Low-throughput nuclear Arc immunofluorescence assay (coverslips, Map2-positive cells); format: cell-based, mouse; details: co-treated with BDNF 6 h; k252a 100 nM, ActD 2 ng ml−1, CHX 50 µg ml−1, U0126 10 µM
Text: Next, using fluorescent immunocytochemistry we assessed to what extent the observed induction of total Arc protein expression measured by western blotting corresponded to an accumulation of Arc in the nucleus of our cultured neurons. We chose to focus on nuclear Arc at this point based on the assumption that it would provide a robust and easily tractable phenotype for testing a large set of compounds with the help of a quantitative, single-cell level, high-content, image-based screen. […] On the other hand, many but not all of the neurons in cultures that were treated with BDNF for 6 h had high levels of Arc in their nuclei (Fig. 2b). […] Finally, to further evaluate the sensitivity of our method to quantify nuclear Arc expression, we tested four pharmacological inhibitors predicted to prevent BDNF-induced Arc expression. […] These experimental results with known mechanism of action compounds critically guided the design and interpretation of the chemogenomic screen performed next.
Indirect immunofluorescence detection of antigens was carried out using cortical neurons cultured on poly-L-lysine/laminin-coated coverslips in 24-well plates at a density of 0.1 × 10^7 per well. After experimental treatment, cells were washed twice with PBS and fixed for 30 min at room temperature with 4% paraformaldehyde in PBS. After fixation, cells were washed twice with PBS, permeabilized with PBST (PBS + 0.25% Triton X-100) for 20 min, blocked in blocking solution (PBS + 5% normal goat serum) for another 30 min, and finally incubated overnight at 4 °C with the first primary antibody in blocking solution. The next day, coverslips were extensively washed with PBS and incubated for 2 h at room temperature in the appropriate fluorophore-conjugated secondary antibody solution (Alexa 488- or Alexa 594-conjugated secondary antibody (Molecular Probes, Invitrogen) in blocking solution). After washing with PBS, the coverslips were incubated again overnight in primary antibody solution for the second antigen, and the procedure for conjugation of the fluorophore-conjugated secondary antibody was repeated as above. Finally, cell nuclei were counterstained with 4′,6-diamidino-2-phenylindole (DAPI), and coverslips were mounted on glass slides with ProLong Antifade reagent (Invitrogen).
Cells cultured on coverslips from three independent biological replicates were imaged with an IN Cell Analyzer 6000 high-performance laser-based confocal imaging system and a ×40 objective (GE Healthcare Life Sciences, Marlborough, MA). Image preparation, assembly, and analysis were performed with ImageJ (NIH) and Photoshop CS. Change in contrast and evenness of the illumination was applied equally to all images presented in the study. The following procedure was used for low-throughput measurements. First, original raw tiff files were opened in ImageJ, the nucleus of all neurons in the image was located based on Map2 immunostaining, then average pixel intensity corresponding to Arc immunofluorescence was measured for a 30-pixel spot positioned at the center of the nuclear compartment. Second, for each measure of Arc nuclear immunofluorescence pixel intensity, a measure of background pixel intensity from the same image channel was acquired and subsequently subtracted from the Arc nuclear immunofluorescence pixel intensity value. Finally, Arc immunofluorescence signal from untreated samples was used to establish an objective threshold (two standard deviations above the nuclear Arc immunofluorescence signal averaged from a representative population of untreated neurons) and allow comparison of nuclear Arc expression between different experimental conditions.

[2] = system: BDNF-induced nuclear Arc expression in primary cortical neurons; assay: Chemogenomic screen: high-content image-based assay of BDNF-induced nuclear Arc expression (96-well); format: cell-based, mouse; details: 16.7 µM, BDNF
Outline: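 DIV13 mouse primary cortical neurons (30,000 cells/well) are treated with compound at 16.7 µM and BDNF, in three biological replicates. Arc and acetyl-H3K9 are immunostained and imaged at ×40, and nuclear Arc signal is quantified automatically using acetyl-H3K9 as the nuclear mask.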

acetyl-H3K9 = assay: Acetyl-H3K9 immunofluorescence in neuronal nuclei (multiplexed in screen); format: cell-based, mouse; details: screen, 16.7 µM
Method: To increase the throughput of our pharmacological screening for modulators of Arc, the above mentioned assay was adapted to cultures of mouse primary cortical neurons in 96-well plates.
as §1

Neuro2a cells = details: for Fold-change to WT: protein half-life in Neuro2a
Text: Next, we aimed to determine whether the K24, K33, K55, and K70 residues participate in Arc protein turnover. […] We also included K70 in this experiment because of its position in the coiled-coil and nuclear retention domains of Arc (Fig. 5e) as well as its relative proximity to K55. For this test, we used site-directed mutagenesis to generate plasmids that would allow overexpression of an acetyl-mimic/unmodifiable mutant Arc-Myc-FLAG protein (lysine (K) to glutamine (Q) mutant) for each of these four sites. After transfecting sets of Neuro2a cells with these different constructs, we inhibited translation with CHX and monitored overexpressed protein levels for up to 6 h after.
Lysates were collected at the indicated time points and Arc-Myc-FLAG protein level analyzed in every sample by western blotting with an anti-FLAG antibody. Representative western blots are presented on top and quantification of data normalized to corresponding β-actin and presented as percentage of Arc-Myc-FLAG level (±SEM) at the initial time point after CHX application (t = 0). Curve represents exponential decay fit. b Estimate of protein half-life Arc for WT Arc-Myc-FLAG and each acetyl-mimic mutant is presented in table. c WT and acetyl-mutant Arc-Myc-FLAG polyubiquitination was determined in lysates from overexpressing Neuro2a cells. Lysates were immunoprecipitated with anti-FLAG and western blotted with anti-Ub or anti-Arc as indicated.
Neuro2A cells were cultured in DMEM (supplemented with 10% fetal bovine serum (Gemini-Bio-Products, West Sacramento, CA), penicillin (50 units ml^−1), and streptomycin (50 µg ml^−1)) and transfected overnight using Lipofectamine 2000 (Invitrogen) according to the manufacturer’s protocol. The Neuro2A cell line was generously shared by Dr. Grace Gill.
The pCMV6-Arc-Myc-DDK (FLAG) plasmid (MR206218) was purchased from OriGene Biotechnologies (Rockville, MD). The Arc-Myc-FLAG K24Q, K24R, K33Q, K55Q, K70Q, and K70R plasmids were generated with the help of the Q5 Site-Directed Mutagenesis Kit from New England BioLabs (Ipswich, MA) using WT pCMV6-Arc-Myc-FLAG as template. All constructs were verified by DNA sequencing.

With `CCCCN(CC)c1nc(C)nc2c1c(C)c(C)n2-c1c(C)cc(C)cc1C.Cl` [Antalarmin hydrochloride] the Reason for exclusion (primary cortical neurons) was “Cell death - toxicity”.

With `CNCC[C@H](Oc1cccc2ccccc12)c1cccs1` [Duloxetine] the Reason for exclusion (primary cortical neurons) was “Cell death - toxicity”.

For `Oc1cc(O)c2c(c1)O[C@H](c1cc(O)c(O)c(O)c1)[C@H](O)C2` [Epigallocatechin, Epigallocatechol, Epigallocatechin], the Reason for exclusion (primary cortical neurons) was “Cell death - toxicity”.

For `COC(=O)[C@@]1(O)C[C@H]2O[C@]1(C)n1c3ccccc3c3c4c(c5c6ccccc6n2c5c31)C(=O)NC4` [K252a], the “effect on BDNF-induced increase of nuclear Arc” value (from here on “effect on BDNF-induced increase”) [1] was “effectively prevented the increase of nuclear Arc”.

In the case of `CC(C)COc1ccc(CNC(=O)N(Cc2ccc(F)cc2)C2CCN(C)CC2)cc1` [Pimavanserin (ACP-103), Pimavanserin], the Reason for exclusion (primary cortical neurons) is reported as “Cell death - toxicity”.

In the case of `C[C@@H](NC(=O)C(=O)c1c[nH]c2ccc([N+](=O)[O-])cc12)c1ccccc1` [TCS 1205], the Reason for exclusion (primary cortical neurons) is reported as “Cell death - toxicity”.

For `COc1cc2c(NC3CCN(C(C)C)CC3)nc(C3CCCCC3)nc2cc1OCCCN1CCCC1` [UNC 0638], the Reason for exclusion (primary cortical neurons) was “Cell death - toxicity”.

`Cc1c2oc3c(C)ccc(C(=O)N[C@@H]4C(=O)N[C@H](C(C)C)C(=O)N5CCC[C@H]5C(=O)N(C)CC(=O)N(C)[C@@H](C(C)C)C(=O)O[C@@H]4C)c3nc-2c(C(=O)N[C@@H]2C(=O)N[C@H](C(C)C)C(=O)N3CCC[C@H]3C(=O)N(C)CC(=O)N(C)[C@@H](C(C)C)C(=O)O[C@@H]2C)c(N)c1=O` [actinomycin D] (I: T[dV]P[Sar][NMeV] / II: T[dV]P[Sar][NMeV]; ester I:1-I:C, II:1-II:C; linker I:N-II:N via Actinocin(9to1)) was tested, and the “effect on BDNF-induced increase” value [1] was “effectively prevented the increase of nuclear Arc”.

For `C[C@@H]1C[C@@H]([C@H](O)CC2CC(=O)NC(=O)C2)C(=O)[C@@H](C)C1` [cycloheximide], the “effect on BDNF-induced increase” value [1] was “effectively prevented the increase of nuclear Arc”.

With `Nc1ccccc1NC(=O)c1ccc(CNC(=O)OCc2cccnc2)cc1` [entinostat, reference compound] the “occurrence of neuronal nuclei with above threshold nuclear Arc immunofluorescence signal, factor in relation to control (DMSO plus BDNF)” value [2] was ≥ 1.5 and the “impact on acetyl-H3K9 immunofluorescence (Z-score)” value (acetyl-H3K9) was “strong impact”.

B1: WT: wild-type mouse Arc-Myc-FLAG protein overexpressed in Neuro2a cells (protein, UniProt Q9WV31 1-396, looked up)
Activity-regulated …: MELDHMTTGGLHAYPAPRGGPAAKPNVILQIGKCRAEMLEHVRRTHRHLLTEVSKQVERELKGLHRSVGKLENNLDGYVPTGDSQRWKKSIKACLCRCQETIANLERWVKREMHVWREVFYRLERWADRLESMGGKYPVGSEPARHTVSVGVGGPEPYCQEADGYDYTVSPYAITPPPAAGELPEQESVEAQQYQSWGPGEDGQPSPGVDTQIFEDPREFLSHLEEYLRQVGGSEEYWLSQIQNHMNGPAKKWWEFKQGSVKNWVEFKKEFLQYSEGTLSREAIQRELELPQKQGEPLDQFLWRKRDLYQTLYVDAEEEEIIQYVVGTLQPKLKRFLRHPLPKTLEQLIQRGMEVQDGLEQAAEPSGTPLPTEDETEALTPALTSESVASDRTQPE
modifications: Myc-FLAG tag
With B1 the “Estimated t½” value (Neuro2a cells) was 2.77 h and the “Fold-change to WT” value (Neuro2a cells) was 1.00.

B2: K55Q: acetyl-mimic/unmodifiable mutant Arc-Myc-FLAG, lysine 55 to glutamine (protein, UniProt Q9WV31 1-396, looked up, variant K55Q)
Activity-regulated …: MELDHMTTGGLHAYPAPRGGPAAKPNVILQIGKCRAEMLEHVRRTHRHLLTEVSQQVERELKGLHRSVGKLENNLDGYVPTGDSQRWKKSIKACLCRCQETIANLERWVKREMHVWREVFYRLERWADRLESMGGKYPVGSEPARHTVSVGVGGPEPYCQEADGYDYTVSPYAITPPPAAGELPEQESVEAQQYQSWGPGEDGQPSPGVDTQIFEDPREFLSHLEEYLRQVGGSEEYWLSQIQNHMNGPAKKWWEFKQGSVKNWVEFKKEFLQYSEGTLSREAIQRELELPQKQGEPLDQFLWRKRDLYQTLYVDAEEEEIIQYVVGTLQPKLKRFLRHPLPKTLEQLIQRGMEVQDGLEQAAEPSGTPLPTEDETEALTPALTSESVASDRTQPE
modifications: Myc-FLAG tag
notes: acetyl-mimic/unmodifiable mutant Arc-Myc-FLAG, lysine 55 to glutamine
B2 was tested, and the “Estimated t½” value (Neuro2a cells) was 2.40 h and the “Fold-change to WT” value (Neuro2a cells) was −1.15.

B3: K33Q: acetyl-mimic/unmodifiable mutant Arc-Myc-FLAG, lysine 33 to glutamine (protein, UniProt Q9WV31 1-396, looked up, variant K33Q)
Activity-regulated …: MELDHMTTGGLHAYPAPRGGPAAKPNVILQIGQCRAEMLEHVRRTHRHLLTEVSKQVERELKGLHRSVGKLENNLDGYVPTGDSQRWKKSIKACLCRCQETIANLERWVKREMHVWREVFYRLERWADRLESMGGKYPVGSEPARHTVSVGVGGPEPYCQEADGYDYTVSPYAITPPPAAGELPEQESVEAQQYQSWGPGEDGQPSPGVDTQIFEDPREFLSHLEEYLRQVGGSEEYWLSQIQNHMNGPAKKWWEFKQGSVKNWVEFKKEFLQYSEGTLSREAIQRELELPQKQGEPLDQFLWRKRDLYQTLYVDAEEEEIIQYVVGTLQPKLKRFLRHPLPKTLEQLIQRGMEVQDGLEQAAEPSGTPLPTEDETEALTPALTSESVASDRTQPE
modifications: Myc-FLAG tag
notes: acetyl-mimic/unmodifiable mutant Arc-Myc-FLAG, lysine 33 to glutamine
In the case of B3, the “Estimated t½” value (Neuro2a cells) is reported as 2.63 h and the “Fold-change to WT” value (Neuro2a cells) is reported as −1.05.
